Literature values in US20100248978A1, “METHOD FOR IDENTIFYING THE INTERACTION PARTNER OF AN ACTIVE AGENT” (Bayer Cropscience AG, priority 2007, published 2010).

Biological target: T1, p-hydroxyphenylpyruvate dioxygenase (HPPD) (Arabidopsis thaliana, UniProt P93836)
T1 sequence (P93836 1-445): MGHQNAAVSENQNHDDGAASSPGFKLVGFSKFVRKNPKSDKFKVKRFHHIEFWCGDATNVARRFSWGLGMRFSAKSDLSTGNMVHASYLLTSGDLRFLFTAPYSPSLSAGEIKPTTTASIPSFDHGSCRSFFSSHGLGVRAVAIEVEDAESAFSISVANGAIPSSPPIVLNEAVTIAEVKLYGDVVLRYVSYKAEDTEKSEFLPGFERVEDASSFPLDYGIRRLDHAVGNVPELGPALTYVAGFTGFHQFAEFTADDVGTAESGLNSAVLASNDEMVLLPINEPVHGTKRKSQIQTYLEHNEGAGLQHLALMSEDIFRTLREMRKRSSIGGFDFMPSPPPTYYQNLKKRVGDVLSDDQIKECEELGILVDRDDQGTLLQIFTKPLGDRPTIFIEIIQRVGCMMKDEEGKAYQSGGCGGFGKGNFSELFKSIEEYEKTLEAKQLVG

Question: With `CS(=O)(=O)c1ccc(C(=O)C2C(=O)CCCC2=O)c(Cl)c1` [sulcotrione] as the compound, how does the “inhibition of HPPD” value read?
Answer: inhibits
